One data set deals with HeLa cells. Kind of data set: cell death-inducing activity. Type of data set: cell-based. As to conditions: 50 μM, 24 hours. From the text:
Figure 1 Structures and characterization of KUSs, novel VCP modulators. (a) Structures and IC50 values of KUS11, KUS31, KUS69, KUS94, KUS121, and KUS187. […] (b) ATPase activity assays of recombinant human […], comparing KUSs and DBeQ. (c) Immunoblot analysis of ubiquitinated proteins, an ER stress marker (CHOP), and an autophagy indicator (LC3), comparing KUSs and DBeQ. As a control, MG132, a proteasome inhibitor, was used for the analysis. Actin served as a loading control. Complete scans of the different blots are presented in Supplementary Fig. 7. (d) Comparison of KUSs and DBeQ for cell death-inducing activities. HeLa cells were treated with 50 μM DBeQ or KUSs for 24 hours. […]

The subject of the next data set is rd10 mice. Kind of data set: rd10 mouse model of retinitis pigmentosa (SD-OCT, electroretinogram, histology, electron microscopy, western blot). The format is in vivo. As to conditions: 21-day-old, 50 mg/kg daily i.p. from day 7, vs control. The method, then:
Starting 7 days after birth, KUS121 or KUS187 was administered daily (50 mg/kg) by intraperitoneal injection. […] To test the visual function of the mice, dark-adapted electroretinograms were recorded. The amplitude of the a-wave, which represents visual function of photoreceptors, was smaller in the control mice than in the KUS-treated mice (Supplementary Fig. 5b and c). The peak latency of the a-wave, which negatively correlates with visual function of photoreceptors, was delayed in the control mice as compared with the KUS-treated mice (Supplementary Fig. 5d). At age 25 days, the thinning of the outer nuclear layer (ONL) was clearly observed in the control mice (Fig. 5a). The outer nuclear layer and the junction line between the inner segment and outer segment (arrow heads in Fig. 5a), which is generally considered to be positively associated with visual function, were clearly detected in the KUS-treated but not in control mice. […] At age 29 days, the photoreceptor layer was barely detected in SD-OCT images, and electroretinogram records were almost flat in control mice. […]
Spectral-domain optical coherence tomography (SD-OCT) examinations using Multiline OCT (Heidelberg Engineering, Heidelberg, Germany) were performed[33] in rd10 mice at ages of 21, 25, 29, and 33days. Total retinal thickness (from inner limiting membrane to Bruch membrane) in rd10 mice was measured using volume scan images[33] within a circle 0.366 mm in diameter, the center of which was adjusted to the center of the optic nerve head. […]
Electroretinogram recording was performed to assess the visual function of rd10 mice at ages of 21, 25, 29, and 33 days. […] Electroretinograms were recorded using a gold loop corneal electrode with a light-emitting diode (Mayo Corp., Inazawa, Japan). […] The electroretinogram response signals were amplified, digitized at 10 kHz with a band-pass filter of 0.3 to 500 Hz, and analyzed (PowerLab 2/25; AD instruments, New South Wales, Australia). […]
On the technique in general: In western blotting, separated proteins are transferred to a membrane and probed.

On to `Cc1cc(F)ccc1-c1ccc(/N=N/c2cc(S(=O)(=O)O)c3ccccc3c2N)cn1` [KUS121], for which the “induction of cell death” value in the data set on HeLa cells is “did not induce any of these phenotypes”. In the data set on rd10 mice, the “mean amplitude of the a-wave, dark-adapted electroretinogram” value was “larger than that in control rd10 mice”.

Values taken from publication PMC4122966, “Novel VCP modulators mitigate major pathologies of rd10, a mouse model of retinitis pigmentosa” (Scientific Reports, 2014).
